These results are taken from patent publication US20240132536A1, “CRYSTAL FORM OF 3-HYDROXY-5-PREGNANE-20-ONE DERIVATIVE, AND PREPARATION METHOD THEREFOR AND USE THEREOF” (priority 2021, published 2024).

Data set [1] is described as follows: Polymorph study: crystalline form A suspended and pulped in solvents, precipitate assayed by XRPD. The class given is physicochemical. The following applies: for Crystalline form after suspension (XRPD): stirred 2 days at 40° C. in darkness. The protocol:
(§1) XRPD (X-ray Powder Diffraction) Method 1: about 10 mg of a sample is uniformly laid on a single crystal silicon sample disc, and XRPD detection is performed using following parameters. Instrument model: X'Pert^3 X-ray diffractometer; target: Cu-Kα (40 mA, 45 kV); scanning range from 3° to 40° in the 2θ interval.
The solution was centrifuged to remove the precipitates, which were dried and assayed by XPRD as follows: […]

Data set [2] can be described thus: Mechanical stability of crystalline form A (XRPD after mechanical treatment). The class given is physicochemical.
Data set [3] can be described thus: Accelerated stability test of crystalline form A (XRPD). The class given is physicochemical. The following applies: open, 40° C., RH75%, 3 months (sampled at 1, 2, 3 months). The protocol: as §1
The format of data set [4] is physicochemical. The following applies: for Purity by HPLC, high humidity (RH92.5%) / Purity by HPLC, high temperature (60° C.) / Purity by HPLC, light (4500 ± 500 Lux): hydrochloride.
The conditions of data set [5]: cited from earlier work.
The conditions of data set [6]: in vivo; cited from earlier work.

Where two headings read alike, the source gives them in different places.

For `CC(=O)[C@H]1CC[C@H]2[C@@H]3CC[C@H]4C[C@H](OC(=O)[C@@H](NC(=O)CN)C(C)C)CC[C@]4(C)[C@H]3CC[C@]12C.Cl` [crystalline form A, glycine-L-valine 3α-hydroxy-5α-pregnan-20-one ester hydrochloride], the “Crystalline form after suspension (XRPD)” value in data set [1] (Acetone), in data set [1] (Ethanol), in data set [1] (Ethyl acetate), in data set [1] (Methanol), in data set [1] (Methyl tert-butyl ether) and in data set [1] (Toluene) was “Crystalline form A” throughout. For the same molecule, the “Crystalline form after suspension (XRPD)” value in data set [1] (n-Heptane) was “Crystalline form A”. The “Stability in different solvent systems (conclusion)” value in data set [1] (seven solvents, 2 days at 40° C.) is “remains stable”. Further, in data set [2], the “Effect of grinding, mechanical pulverising and pressure on stability (conclusion)” value was “no effects”. Moreover, the “Crystalline form after mechanical treatment (XRPD)” value in data set [2] (Ground in an agate mortar for a few minutes), in data set [2] (pressed in a tablet press) and in data set [2] (pulverised in a mechanical shredder for a few minutes) was “Crystalline form A” throughout. In addition, the “Change of crystalline form (XRPD) after accelerated stability test” value in data set [3] was “no change”. Moreover, the “Purity by HPLC, high humidity (RH92.5%)” value in data set [4] (day 0), in data set [4] (day 5), in data set [4] (day 10) and in data set [4] (day 30) was 99.69% in each case. The “Purity by HPLC, high temperature (60° C.)” value (from here on “Purity by HPLC … (60° C.)”) in data set [4] (day 0) came to 99.69%; in data set [4] (day 5), 99.62%; in data set [4] (day 10) it was 99.68%; in data set [4] (day 30), 99.69%. The “Purity by HPLC, light (4500 ± 500 Lux)” value in data set [4] (day 0) stood at 99.69%; in data set [4] (day 5), 99.66%; in data set [4] (day 10), 99.70%; in data set [4] (day 30), 99.67%. Also, the “Stability under high temperature, high humidity and light conditions (conclusion)” value in data set [4] (up to 30 days) is given as “stable”.

Consider `CC(=O)[C@H]1CC[C@H]2[C@@H]3CC[C@H]4C[C@H](O)CC[C@]4(C)[C@H]3CC[C@]12C` [allopregnanolone], for which the “human plasma half-life period” value in data set [5] is reported as “about 45 minutes”. Moreover, the oral availability result in data set [6] is given as “poor”.

As to `CC(=O)[C@H]1CC[C@H]2[C@@H]3CC[C@H]4C[C@H](OC(=O)[C@@H](NC(=O)CN)C(C)C)CC[C@]4(C)[C@H]3CC[C@]12C.Cl` [crystalline form C, glycine-L-valine 3α-hydroxy-5α-pregnan-20-one ester hydrochloride], the “Purity by HPLC, high humidity (RH92.5%)” value in data set [4] (day 0) stood at 99.62%; in data set [4] (day 5), 99.58%; in data set [4] (day 10), 99.56%; in data set [4] (day 30), 99.53%. Also, the “Purity by HPLC … (60° C.)” value in data set [4] (day 0) is listed as 99.62%; in data set [4] (day 5) it was 99.61%; in data set [4] (day 10) it was 99.59%; in data set [4] (day 30) it was 99.60%. For the same molecule, the “Purity by HPLC, light (4500 ± 500 Lux)” value is 99.62% in data set [4] (day 0), 99.60% in data set [4] (day 5), 99.59% in data set [4] (day 10) and 99.57% in data set [4] (day 30).

Take `CC(=O)[C@H]1CC[C@H]2[C@@H]3CC[C@H]4C[C@H](OC(=O)[C@@H](NC(=O)CN)C(C)C)CC[C@]4(C)[C@H]3CC[C@]12C.Cl` [crystalline form B, glycine-L-valine 3α-hydroxy-5α-pregnan-20-one ester hydrochloride]: the “Purity by HPLC, high humidity (RH92.5%)” value in data set [4] (day 0) came out at 99.59%; in data set [4] (day 5), 99.58%; in data set [4] (day 10) it was 99.55%; in data set [4] (day 30), 99.56%. The “Purity by HPLC … (60° C.)” value is reported as 99.59% in data set [4] (day 0), 99.57% in data set [4] (day 5), 99.54% in data set [4] (day 10) and 99.52% in data set [4] (day 30). The “Purity by HPLC, light (4500 ± 500 Lux)” value was determined as 99.59% in data set [4] (day 0), 99.55% in data set [4] (day 5), 99.53% in data set [4] (day 10) and 99.52% in data set [4] (day 30).
